Where two headings read alike, the source gives them in different places.
Experiments:
Experiment in all cases: Ras GTP binding domain inhibition assay (Cy3-GTP/Cy5-GTP competition)
[1] = target: T1, KRas G12D mutant (Homo sapiens, UniProt P01116, G12D); settings: 20 μM
T1 construct: fused on or other part: His tag, used for capture on nickel-coated plates
Method in brief: (§1)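 His-tagged Ras proteins were captured on nickel-coated wells in Buffer-I (25 mM Tris-HCl pH 7.4, 27 mM KCl, 137 mM NaCl, 1 mM MgCl2, 1 mM DTT) or Buffer-II (50 mM Tris-HCl pH 7.0). Compounds (20 μM or serial dilution, 1% DMSO) were incubated 3 h at RT, ±Sos(556-1049) in the final hour. Bound Cy3-/Cy5-GTP (100 nM, 45 min) was read after washing.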

[2] = tested on: KRas Q61H mutant; parameters: species or system human; settings: 20 μM
Method in brief: as §1

[3] = tested on: KRas wild type; parameters: species or system human; settings: 20 μM; for KRas wild type % inh.: without SOS (Table 7A); for KRas wild type: % inh.: without SOS
Method in brief: as §1

[4] = tested on: KRas G12C mutant; parameters: species or system human; settings: 20 μM
Method in brief: as §1

[5] = with SOS (Table 7A), read-out: KRas G12D mutant + SOS: % inh.
[6] = without SOS (Table 7A), read-out: KRas G12D mutant: % inh.
[7] = with SOS, read-out: KRas G-12D mutant + SOS: % inh.
[8] = without SOS, read-out: KRas G12D mutant: % inh.

Row | SMILES | inhibition at 20 µM [1, 5] [%] | inhibition at 20 µM [1, 6] [%] | KRas Q61H mutant + SOS: % inh. ([2]; with SOS (Table 7A)) | KRas Q61H mutant: % inh. ([2]; without SOS (Table 7A)) | KRas wild type + SOS: % inh. ([3]; with SOS (Table 7A)) | KRas wild type % inh. [3] | KRas G12C mutant + SOS: % inh. ([4]; with SOS (Table 7A)) | KRas G12C mutant: % inh. ([4]; without SOS (Table 7A)) | inhibition at 20 µM [1, 7] [%] | inhibition at 20 µM [1, 8] [%] | KRas Q61H mutant + SOS: % inh. ([2]; with SOS) | KRas Q61H mutant: % inh. ([2]; without SOS) | KRas wild type + SOS: % inh. ([3]; with SOS) | KRas wild type: % inh. [3] | KRas G12C mutant + SOS: % inh. ([4]; with SOS) | KRas G12C mutant: % inh. ([4]; without SOS)
1 | COc1cccc(-c2sc3nc(-c4nccn4C)nc(N[C@H]4C[C@@H](OC)C4)c3c2-c2ccccc2)c1F [drawing 891] | 51 to 75 | 26 to 50 | D (76-100% inhibition) | D (76-100% inhibition) | D (76-100% inhibition) | C (51-75% inhibition) | D (76-100% inhibition) | C (51-75% inhibition) | – | – | – | – | – | – | – | –
2 | COCC(C)Nc1nc(-c2nccn2C)nc2sc(-c3ccccc3Cl)c(-c3cscn3)c12 (stereo not shown) [drawing 854] | – | – | – | – | – | – | – | – | 51 to 75 | 51 to 75 | D (76-100% inhibition) | C (51-75% inhibition) | D (76-100% inhibition) | B (26-50% inhibition) | D (76-100% inhibition) | C (51-75% inhibition)
3 | COc1c(O)nc(-c2ccccn2)nc1Nc1ccccc1 [drawing 880] | 26 to 50 | 26 to 50 | C (51-75% inhibition) | C (51-75% inhibition) | B (26-50% inhibition) | C (51-75% inhibition) | B (26-50% inhibition) | C (51-75% inhibition) | – | – | – | – | – | – | – | –
4 | COCCNC(=O)c1sc2nc(-c3nccn3C)nc(N[C@H]3C[C@@H](OC)C3)c2c1-c1ccccc1 [drawing 921] | 51 to 75 | 51 to 75 | D (76-100% inhibition) | D (76-100% inhibition) | C (51-75% inhibition) | D (76-100% inhibition) | D (76-100% inhibition) | D (76-100% inhibition) | – | – | – | – | – | – | – | –
5 | COCCNc1nc(-c2nccn2C)nc2sc(-c3ccccc3Cl)c(-c3ccc(OC)cc3)c12 [drawing 876] | – | – | – | – | – | – | – | – | 76 to 100 | 26 to 50 | D (76-100% inhibition) | B (26-50% inhibition) | D (76-100% inhibition) | B (26-50% inhibition) | D (76-100% inhibition) | B (26-50% inhibition)
6 | COC1CCN(c2nc(-c3nccn3C)nc3sc(-c4cnn(C)c4)c(-c4ccccc4)c23)C1.Cl (stereo not shown) | – | – | – | – | – | – | – | – | 76 to 100 | 26 to 50 | D (76-100% inhibition) | B (26-50% inhibition) | D (76-100% inhibition) | B (26-50% inhibition) | D (76-100% inhibition) | C (51-75% inhibition)
7 | COC1CCC(Nc2nc(-c3nccn3C)nc3sc(-c4cccc5[nH]ncc45)c(-c4ccccc4)c23)C1 (stereo not shown) [drawing 888] | 26 to 50 | 26 to 50 | D (76-100% inhibition) | C (51-75% inhibition) | D (76-100% inhibition) | B (26-50% inhibition) | D (76-100% inhibition) | B (26-50% inhibition) | – | – | – | – | – | – | – | –
8 | COCCNc1nc(-c2nccn2C)nc2sc(-c3cc(OC)ccc3Cl)c(-c3ccccc3)c12 [drawing 871] | – | – | – | – | – | – | – | – | 1 to 25 | 26 to 50 | A (1-25% inhibition) | C (51-75% inhibition) | A (1-25% inhibition) | B (26-50% inhibition) | A (1-25% inhibition) | 0 (0% inhibition)

— US20250296938A1, “Compounds that Interact with the Ras Superfamily for the Treatment of Cancers, Inflammatory Diseases, Rasopathies, and Fibrotic Disease” (SHY Therapeutics, LLC, priority 2018, published 2025)
